From patent US9113629B2, “4-amino-6-(4-substituted-phenyl)-picolinates and 6-amino-2-(4-substituted-phenyl)-pyrimidine-4-carboxylates and their use as herbicides” (DOW AGROSCIENCES LLC, priority 2013, dated 2015)
Read-outs that look alike come from different tables or passages of the source.

How the values were obtained:
[1] = tested on: Key Broadleaf Weed and Crop Species; experiment: Post-emergent Test II herbicidal activity (Table 5); type: in vivo; conditions: post-emergence, 336 h, 14 days after application; for pest or weed control at 70 g/ha: application rate 70 g ai/ha; for pest or weed control at 140 g/ha: application rate 140 g ai/ha
Summary of the method: (§1)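 Test species were raised 7–21 d under greenhouse conditions until reaching the first or second true leaf, sprayed with formulated compound at 187 L/ha, and kept subirrigated to avoid wash-off. Fourteen days later, damage was rated visually on a 0–100% scale against untreated plants.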

[2] = tested on: Key Grass and Sedge Weeds as well as Grass Crops; experiment: Post-emergent Test II herbicidal activity (Table 6); type: in vivo; conditions: post-emergence, 336 h; for pest or weed control at 70 g/ha: 70 g ai/ha; for pest or weed control at 140 g/ha: 140 g ai/ha
Summary of the method: as §1

[3] = ABUTH: velvetleaf (Abutilon theophrasti), read-out: Visual Growth Reduction (%) 14 Days After Application, ABUTH
[4] = AMARE: redroot pigweed (Amaranthus retroflexus), read-out: Visual Growth Reduction (%) 14 Days After Application, AMARE
[5] = BRSNN: oilseed-rape, canola (Brassica napus), read-out: Visual Growth Reduction (%) 14 Days After Application, BRSNN
[6] = CHEAL: lambsquarters (Chenopodium album), read-out: Visual Growth Reduction (%) 14 Days After Application, CHEAL
[7] = EPHHL: wild poinsettia (Euphorbia heterophylla), read-out: Visual Growth Reduction (%) 14 Days After Application, EPHHL
[8] = HELAN: sunflower (Helianthus annuus), read-out: Visual Growth Reduction (%) 14 Days After Application, HELAN
[9] = VIOTR: wild pansy (Viola tricolor), read-out: Visual Growth Reduction (%) 14 Days After Application, VIOTR
[10] = CYPES: yellow nutsedge (Cyperus esculentus), read-out: Visual Growth Reduction (%) 14 Days After Application, CYPES
[11] = DIGSA: crabgrass (Digitaria sanguinalis), read-out: Visual Growth Reduction (%) 14 Days After Application, DIGSA
[12] = ECHCG: barnyardgrass (Echinochloa crus-galli), read-out: Visual Growth Reduction (%) 14 Days After Application, ECHCG
[13] = ORYSA: rice (Oryza sativa), crop, read-out: Visual Growth Reduction (%) 14 Days After Application, ORYSA
[14] = SETFA: giant foxtail (Setaria faberi), read-out: Visual Growth Reduction (%) 14 Days After Application, SETFA
[15] = SORVU: grain sorghum (Sorghum vulgare), read-out: Visual Growth Reduction (%) 14 Days After Application, SORVU
[16] = TRZSS (wheat, Triticum aestivum), crop, read-out: Visual Growth Reduction (%) 14 Days After Application, TRZSS
[17] = ZEAMX: maize, corn (Zea mays), crop, read-out: Visual Growth Reduction (%) 14 Days After Application, ZEAMX

How did the pest or weed control at 70 g/ha [1, 3] turn out when `COC(=O)c1nc(-c2ccc(C#N)c(F)c2)c(F)c(N)c1Cl` [Compound 135, methyl 4-amino-3-chloro-6-(4-cyano-3-fluorophenyl)-5-fluoropicolinate] was run?
Its pest or weed control at 70 g/ha is 95 to 100%.

What about the pest or weed control at 140 g/ha [1, 3] of the same compound?
The pest or weed control at 140 g/ha was 95 to 100%.

What about the pest or weed control at 70 g/ha [1, 4] of the same compound?
The pest or weed control at 70 g/ha was 95 to 100%.

And the pest or weed control at 140 g/ha [1, 4]?
The pest or weed control at 140 g/ha was 95 to 100%.

And the pest or weed control at 70 g/ha [1, 5]?
Its pest or weed control at 70 g/ha is 60 to 74%.

And the pest or weed control at 140 g/ha [1, 5]?
Its pest or weed control at 140 g/ha is 60 to 74%.

What about the pest or weed control at 70 g/ha [1, 6] of the same compound?
The pest or weed control at 70 g/ha was 95 to 100%.

And the pest or weed control at 140 g/ha [1, 6]?
Its pest or weed control at 140 g/ha is 95 to 100%.

And the pest or weed control at 70 g/ha [1, 7]?
The pest or weed control at 70 g/ha was 95 to 100%.

What about the pest or weed control at 140 g/ha [1, 7] of the same compound?
The pest or weed control at 140 g/ha was 95 to 100%.

What about the pest or weed control at 70 g/ha [1, 8] of the same compound?
Its pest or weed control at 70 g/ha is 95 to 100%.

What about the pest or weed control at 140 g/ha [1, 8] of the same compound?
The pest or weed control at 140 g/ha was 95 to 100%.

What about the pest or weed control at 70 g/ha [1, 9] of the same compound?
The pest or weed control at 70 g/ha was 60 to 74%.

And the pest or weed control at 140 g/ha [1, 9]?
The pest or weed control at 140 g/ha was 60 to 74%.

And the pest or weed control at 70 g/ha [2, 10]?
The pest or weed control at 70 g/ha was 85 to 94%.

And the pest or weed control at 140 g/ha [2, 10]?
Its pest or weed control at 140 g/ha is 95 to 100%.

What about the pest or weed control at 70 g/ha [2, 11] of the same compound?
The pest or weed control at 70 g/ha was 60 to 74%.

And the pest or weed control at 140 g/ha [2, 11]?
Its pest or weed control at 140 g/ha is 75 to 84%.

And the pest or weed control at 70 g/ha [2, 12]?
The pest or weed control at 70 g/ha was 95 to 100%.

And the pest or weed control at 140 g/ha [2, 12]?
Its pest or weed control at 140 g/ha is 95 to 100%.

What about the pest or weed control at 70 g/ha [2, 13] of the same compound?
The pest or weed control at 70 g/ha was 0 to 29%.

What about the pest or weed control at 140 g/ha [2, 13] of the same compound?
Its pest or weed control at 140 g/ha is 0 to 29%.

What about the pest or weed control at 70 g/ha [2, 14] of the same compound?
Its pest or weed control at 70 g/ha is 60 to 74%.

And the pest or weed control at 140 g/ha [2, 14]?
Its pest or weed control at 140 g/ha is 75 to 84%.

And the pest or weed control at 70 g/ha [2, 15]?
Its pest or weed control at 70 g/ha is 75 to 84%.

What about the pest or weed control at 140 g/ha [2, 15] of the same compound?
The pest or weed control at 140 g/ha was 85 to 94%.

What about the pest or weed control at 70 g/ha [2, 16] of the same compound?
The pest or weed control at 70 g/ha was 30 to 44%.

What about the pest or weed control at 140 g/ha [2, 16] of the same compound?
Its pest or weed control at 140 g/ha is 30 to 44%.

What about the pest or weed control at 70 g/ha [2, 17] of the same compound?
The pest or weed control at 70 g/ha was 75 to 84%.

And the pest or weed control at 140 g/ha [2, 17]?
Its pest or weed control at 140 g/ha is 75 to 84%.
